Assay results from patent publication US10575525B2, “Benzoxazole compound or salt thereof, agricultural and horticultural insecticide comprising the compound, and method for using the insecticide” (Nihon Nohyaku Co., Ltd., priority 2016, dated 2020).

Key:
Laodelphax striatella = test: Insecticidal test on Laodelphax striatella (rice seedling dip); assay type: in vivo; details: Laodelphax striatellus, 192 h, rice seedlings dipped 30 seconds, 3rd-instar larvae, 8 days after inoculation, read-out: corrected mortality rate, activity level
Source text: Insecticidal test on Laodelphax striatella
The benzoxazole compounds represented by the general formula (1) of the present invention or salts thereof were separately dispersed in water and diluted to 500 ppm. Rice plant seedlings (variety: Nihonbare) were dipped in the agrochemical dispersions for 30 seconds. After air-dried, each seedling was put into a separate glass test tube and inoculated with ten 3rd-instar larvae of Laodelphax striatella, and then the glass test tubes were capped with cotton plugs. At 8 days after the inoculation, the numbers of surviving larvae and dead larvae were counted, the corrected mortality rate was calculated according to the formula shown below and evaluated according to the criteria shown below. Corrected mortality rate (%)=100×(Survival rate in a non-treatment plot−Survival rate in a treatment plot)/Survival rate in a non-treatment plot [Math. 2] Criteria A: the corrected mortality rate is 100%. B: the corrected mortality rate is 90 to 99%. C: the corrected mortality rate is 80 to 89%. D: the corrected mortality rate is 50 to 79%.

Plutella xylostella = test: Insecticidal test on Plutella xylostella (dip of Chinese cabbage seedlings with laid eggs); assay type: in vivo; details: 144 h, seedlings with eggs dipped about 30 seconds, 25° C., 6 days after dip treatment, criteria of Test Example 2, read-out: insecticidal effect (corrected mortality rate), activity level
Source text: Insecticidal test on Plutella xylostella
Adults of Plutella xylostella were released onto Chinese cabbage seedlings and allowed to lay eggs thereon. At 2 days after the release of the adults, the Chinese cabbage seedlings with laid eggs were dipped for about 30 seconds in agrochemical aqueous dispersions diluted to 500 ppm, each of which contained a different kind of benzoxazole compound represented by the general formula (1) of the present invention as an active ingredient. After air-dried, the seedlings were kept in a thermostatic chamber at 25° C. At 6 days after the dip treatment, the number of hatched larvae per plot was counted, the mortality rate was calculated according to the formula shown below, and the insecticidal effect was evaluated according to the criteria of Test Example 2. This test was conducted in triplicate using 10 adults of Plutella xylostella per plot. Corrected mortality rate (%)=100×(Number of hatched larvae in a non-treatment plot−Number of hatched larvae in a treatment plot)/Number of hatched larvae in a non-treatment plot [Math. 3]

CCS(=O)(=O)c1cc(C2CC2)cnc1-c1nc2cc(OC(F)(F)F)ccc2o1 [Compound 1-3, 2-(5-Cyclopropyl-3-ethylsulfonylpyridin-2-yl)-5-(trifluoromethoxy)benzo[d]oxazole]
mortality at 500 ppm (Laodelphax striatella): 100%
mortality at 500 ppm (Plutella xylostella): 100%

CCS(=O)(=O)c1cc(C2CC2)cnc1-c1nc2cc([S+]([O-])C(F)(F)F)ccc2o1 (stereo not shown) [Compound 1-12, 2-(5-Cyclopropyl-3-ethylsulfonylpyridin-2-yl)-5-(trifluoromethylsulfinyl)benzo[d]oxazole]
mortality at 500 ppm (Laodelphax striatella): 100%
mortality at 500 ppm (Plutella xylostella): 100%
